Measured values from PMC1931592 (BMC Pharmacology, 2007).
Entries after “also recorded” stand apart in the source; their conditions may differ.

Assays:
Type in all cases: biochemical
[1] = molecular target: T1, recombinant human caspase-8 (Homo sapiens, UniProt Q14790); assay: Ac-DNLD-MCA and Ac-DEVD-MCA cleavage assay, caspase-8; conditions: 200 μM substrate, 37°C, MCA liberation
T1 construct: each active recombinant human caspase was incubated; purchased Calbiochem
Procedure: (§1) To characterize the potency and selectivity of Ac-DNLD-MCA for caspases-3, -7, -8, and -9, in vitro caspase activity assays were performed. One unit (the amount of enzyme that cleaves 1 nmol of substrate per hr) of each active recombinant human caspase was added to a reaction mixture containing 200 μM Ac-DNLD-MCA or Ac-DEVD-MCA in assay buffer (100 mM NaCl, 50 mM HEPES, 10 mM DTT, 1 mM EDTA, 10% glycerol, and 0.1% CHAPS, pH 7.4). Then, the liberation of MCA was monitored continuously at 37°C using a 96-well plate reader Wallace 1420 ARVOsx (PerkinElmer) with an excitation wavelength of 390 nm and an emission wavelength of 460 nm.

[2] = molecular target: T2, substituted (S209A) caspase-3 (Homo sapiens, UniProt P42574, S209A); assay: Cleavage assay with substituted (S209A) caspase-3 versus wild-type; conditions: S209A versus wild-type caspase-3
T2 construct: Active caspase-3 was generated by coexpression of HA-p17 and HA-p12 (wild type or mutant) subunits in vitro; (position 176–208, antisense); made in house
T2 sequence (P42574 29-175 limits assumed): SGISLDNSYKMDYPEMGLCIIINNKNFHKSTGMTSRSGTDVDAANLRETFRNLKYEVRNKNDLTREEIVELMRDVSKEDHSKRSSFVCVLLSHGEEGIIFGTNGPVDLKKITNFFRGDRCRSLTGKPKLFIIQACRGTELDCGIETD
T2 sequence (P42574 176-277 S209A limits assumed): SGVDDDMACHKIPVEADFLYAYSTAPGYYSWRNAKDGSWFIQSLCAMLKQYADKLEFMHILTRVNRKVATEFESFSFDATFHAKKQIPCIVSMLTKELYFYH
Procedure: as §1
Site-directed mutagenesis of p12 subunit (S209A) was introduced using PCR. The following primers were used for the preparation of the mutant, 5'-[…] TGACATG-3' (position 176–208, sense) and 5'-[…]-3' (position 176–208, antisense); 5'-[…]-3' (position 209–277, sense) and 5'-[…]-3' (position 209–277, antisense). The mutated site (Ser209→Ala) was shown in bold letter. After each fragments were amplified and ligated, they were tagged with HA and subcloned into pcDNA3 B (Invitrogen) at the EcoRV site. After comfirming the sequences, the inserts were excited by XhoI digestion and recloned into the XhoI site of pURE4 (Post Genome Institute Co., Ltd.) […]

[3] = molecular target: T3, recombinant human caspase-7 (Homo sapiens, UniProt P55210); assay: Ac-DNLD-MCA and Ac-DEVD-MCA cleavage assay, caspase-7; conditions: 200 μM substrate, 37°C, MCA liberation
T3 construct: each active recombinant human caspase was incubated; purchased Calbiochem
T3 sequence (P55210 24-198 limits assumed): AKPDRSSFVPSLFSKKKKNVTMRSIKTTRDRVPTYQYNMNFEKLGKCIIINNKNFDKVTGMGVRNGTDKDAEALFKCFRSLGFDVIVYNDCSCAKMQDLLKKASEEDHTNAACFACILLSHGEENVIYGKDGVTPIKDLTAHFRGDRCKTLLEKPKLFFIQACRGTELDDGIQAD
T3 sequence (P55210 207-303 limits assumed): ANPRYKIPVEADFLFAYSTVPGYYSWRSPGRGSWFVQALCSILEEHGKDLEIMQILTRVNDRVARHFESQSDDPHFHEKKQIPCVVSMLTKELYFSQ
Procedure: as §1

[4] = molecular target: T4, recombinant human caspase-9 (Homo sapiens, UniProt P55211); assay: Ac-DNLD-MCA and Ac-DEVD-MCA cleavage assay, caspase-9; conditions: 200 μM substrate, 37°C, MCA liberation
T4 sequence (P55211 140-315 limits assumed): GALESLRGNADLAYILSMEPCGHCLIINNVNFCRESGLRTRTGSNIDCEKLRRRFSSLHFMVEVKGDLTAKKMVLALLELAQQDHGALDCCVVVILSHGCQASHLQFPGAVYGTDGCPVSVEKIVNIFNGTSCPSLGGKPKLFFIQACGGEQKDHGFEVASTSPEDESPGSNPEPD
T4 sequence (P55211 331-416 limits assumed): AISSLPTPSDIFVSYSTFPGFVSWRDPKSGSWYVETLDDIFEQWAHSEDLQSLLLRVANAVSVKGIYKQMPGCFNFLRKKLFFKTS
Procedure: as §1

T1 sequence (Q14790 217-374 limits assumed): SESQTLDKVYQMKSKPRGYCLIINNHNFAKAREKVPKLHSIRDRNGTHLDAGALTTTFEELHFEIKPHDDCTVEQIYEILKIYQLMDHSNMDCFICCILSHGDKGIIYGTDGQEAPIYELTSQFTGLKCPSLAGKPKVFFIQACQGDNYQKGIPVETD
T1 sequence (Q14790 385-479 limits assumed): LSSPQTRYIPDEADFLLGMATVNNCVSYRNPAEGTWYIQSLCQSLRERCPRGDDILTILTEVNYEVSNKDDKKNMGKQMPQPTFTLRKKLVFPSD

- cleavage of fluorometric substrate by caspase-8 (in words) [1]: able to cleave
- cleavage of fluorometric substrate by caspase-7 (in words) [3]: able to cleave
- cleavage of fluorometric substrate by caspase-9 (in words) [4]: able to cleave
Substance: Ac-DEVD-MCA
- cleavage of substrate by S209A caspase-3 compared with wild-type (in words) [2]: virtually no effect; also recorded: as efficient as the wild-type
